# Assay results from the kinase profiling compilation of Christmann-Franck et al. (2016).
# Several values for one entry are separate records, joined by “and”; a condition that tells them apart may be missing. Identical values can stand only once.
# Experiments:
# Test in all cases: radiometric filter-binding kinase assay, Kinase HotSpot
# Settings in all cases: compound 0.5 µM; ATP 10 µM
# PRKCB1 (human) = PRKCB1 (human) (UniProt P05771)
# MLTK (human) = MLTK (human) (UniProt Q9NYL2)
# PHKG2 (human) = PHKG2 (human) (UniProt P15735)
# CDK4 CCND1 (human) = CDK4 CCND1 (human) (UniProt P24385+P11802)
# Sequence of CDK4 CCND1 (human) (P11802 whole entry, looked up): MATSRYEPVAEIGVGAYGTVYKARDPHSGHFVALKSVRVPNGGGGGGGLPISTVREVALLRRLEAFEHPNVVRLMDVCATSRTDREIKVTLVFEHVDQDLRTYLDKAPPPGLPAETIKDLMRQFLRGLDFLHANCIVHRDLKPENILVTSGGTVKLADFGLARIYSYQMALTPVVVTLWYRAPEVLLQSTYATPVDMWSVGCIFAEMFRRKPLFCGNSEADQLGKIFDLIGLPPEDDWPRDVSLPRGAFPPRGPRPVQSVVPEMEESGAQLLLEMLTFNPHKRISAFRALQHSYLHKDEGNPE
# Sequence of CDK4 CCND1 (human) (P24385 whole entry, looked up): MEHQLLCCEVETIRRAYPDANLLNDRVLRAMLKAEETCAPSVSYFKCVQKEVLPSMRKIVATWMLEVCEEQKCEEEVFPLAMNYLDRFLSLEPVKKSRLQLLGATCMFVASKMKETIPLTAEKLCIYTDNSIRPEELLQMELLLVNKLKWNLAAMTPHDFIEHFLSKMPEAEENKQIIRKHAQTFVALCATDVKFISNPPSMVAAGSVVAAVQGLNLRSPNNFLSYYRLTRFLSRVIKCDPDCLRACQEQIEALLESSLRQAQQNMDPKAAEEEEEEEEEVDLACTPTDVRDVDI
# MAP2K1 (human) = MAP2K1 (human) (UniProt Q02750)
# Sequence of MAP2K1 (human) (Q02750 whole entry, looked up): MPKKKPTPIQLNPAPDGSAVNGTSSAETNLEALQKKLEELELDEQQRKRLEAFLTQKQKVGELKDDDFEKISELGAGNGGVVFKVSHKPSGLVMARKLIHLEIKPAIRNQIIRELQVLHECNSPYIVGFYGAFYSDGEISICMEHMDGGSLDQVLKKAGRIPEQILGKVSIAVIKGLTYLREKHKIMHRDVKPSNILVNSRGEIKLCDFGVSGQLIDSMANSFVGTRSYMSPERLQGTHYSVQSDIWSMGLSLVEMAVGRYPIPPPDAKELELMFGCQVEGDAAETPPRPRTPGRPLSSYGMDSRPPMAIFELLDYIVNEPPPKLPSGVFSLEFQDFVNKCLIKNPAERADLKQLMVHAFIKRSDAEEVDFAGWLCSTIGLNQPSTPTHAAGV
# MAP4K5 (human) = MAP4K5 (human) (UniProt Q9Y4K4)
# MYO3B (human) = MYO3B (human) (UniProt Q8WXR4)
# PRKCA (human) = PRKCA (human) (UniProt P17252)
# STK11 (human) = STK11 (human) (UniProt Q15831)
# EPHB3 (human) = EPHB3 (human) (UniProt P54753)
# STK38 (human) = STK38 (human) (UniProt Q15208)
# IRAK4 (human) = IRAK4 (human) (UniProt Q9NWZ3)
# MAP3K8 (human) = MAP3K8 (human) (UniProt P41279)
# EPHA6 (human) = EPHA6 (human) (UniProt Q9UF33)
# Sequence of EPHA6 (human) (Q9UF33 whole entry, looked up): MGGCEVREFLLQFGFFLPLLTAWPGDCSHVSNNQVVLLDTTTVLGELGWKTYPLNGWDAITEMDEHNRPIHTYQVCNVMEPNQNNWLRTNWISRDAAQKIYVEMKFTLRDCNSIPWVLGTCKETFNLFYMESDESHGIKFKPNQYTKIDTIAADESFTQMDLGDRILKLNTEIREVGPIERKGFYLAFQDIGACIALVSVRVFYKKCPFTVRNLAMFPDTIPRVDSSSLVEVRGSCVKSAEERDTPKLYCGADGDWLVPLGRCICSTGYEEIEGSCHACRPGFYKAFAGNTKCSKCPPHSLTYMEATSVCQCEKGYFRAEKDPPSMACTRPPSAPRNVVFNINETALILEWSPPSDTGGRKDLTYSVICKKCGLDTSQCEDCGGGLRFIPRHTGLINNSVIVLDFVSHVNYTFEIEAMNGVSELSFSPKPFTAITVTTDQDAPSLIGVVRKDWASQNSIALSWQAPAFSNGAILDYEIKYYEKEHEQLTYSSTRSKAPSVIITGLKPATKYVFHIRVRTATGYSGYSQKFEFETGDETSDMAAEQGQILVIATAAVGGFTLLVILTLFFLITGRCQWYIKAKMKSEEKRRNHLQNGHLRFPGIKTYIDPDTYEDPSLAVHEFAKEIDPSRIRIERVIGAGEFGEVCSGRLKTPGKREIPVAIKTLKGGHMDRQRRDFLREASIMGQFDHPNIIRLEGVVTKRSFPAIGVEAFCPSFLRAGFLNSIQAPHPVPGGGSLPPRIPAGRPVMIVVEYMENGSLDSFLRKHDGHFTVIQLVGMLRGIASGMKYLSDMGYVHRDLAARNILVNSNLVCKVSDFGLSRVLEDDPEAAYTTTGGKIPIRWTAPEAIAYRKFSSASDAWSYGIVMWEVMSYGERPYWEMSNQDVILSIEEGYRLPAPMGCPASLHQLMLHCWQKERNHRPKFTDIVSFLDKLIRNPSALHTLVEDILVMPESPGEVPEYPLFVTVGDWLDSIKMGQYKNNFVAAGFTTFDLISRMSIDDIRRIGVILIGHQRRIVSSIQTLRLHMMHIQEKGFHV
# ULK3 (human) = ULK3 (human) (UniProt Q6PHR2)
# LYN (human) = LYN (human) (UniProt P07948)
# Sequence of LYN (human) (P07948 whole entry, looked up): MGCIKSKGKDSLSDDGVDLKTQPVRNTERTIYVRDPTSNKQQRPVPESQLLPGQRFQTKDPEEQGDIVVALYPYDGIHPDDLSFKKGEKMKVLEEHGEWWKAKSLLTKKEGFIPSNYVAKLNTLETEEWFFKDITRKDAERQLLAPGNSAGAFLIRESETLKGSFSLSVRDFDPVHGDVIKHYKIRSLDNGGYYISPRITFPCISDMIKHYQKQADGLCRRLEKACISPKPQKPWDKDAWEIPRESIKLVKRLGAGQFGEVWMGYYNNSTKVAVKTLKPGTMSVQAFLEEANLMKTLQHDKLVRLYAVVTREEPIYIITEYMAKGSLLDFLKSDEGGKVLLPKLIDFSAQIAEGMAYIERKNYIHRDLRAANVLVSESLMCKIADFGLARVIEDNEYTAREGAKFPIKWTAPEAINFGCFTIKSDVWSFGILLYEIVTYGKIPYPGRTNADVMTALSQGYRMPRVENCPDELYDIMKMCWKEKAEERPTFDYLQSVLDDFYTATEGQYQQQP
# CDK2 CCNA2 (human) = CDK2 CCNA2 (human) (UniProt P24941+P20248)
# IKBKE (human) = IKBKE (human) (UniProt Q14164)
# CSNK2A1 (human) = CSNK2A1 (human) (UniProt P68400)
# EPHB2 (human) = EPHB2 (human) (UniProt P29323)
# CSNK1E (human) = CSNK1E (human) (UniProt P49674)
# HCK (human) = HCK (human) (UniProt P08631)
# NEK3 (human) = NEK3 (human) (UniProt P51956)
# JAK3 JH1 JH2 (human) = JAK3 JH1 JH2 (human) (UniProt P52333)
# AURKA (human) = AURKA (human) (UniProt O14965)
# MAP4K4 (human) = MAP4K4 (human) (UniProt O95819)
# CAMKK2 (human) = CAMKK2 (human) (UniProt Q96RR4)
# TLK2 (human) = TLK2 (human) (UniProt Q86UE8)
# BRAF (human) = BRAF (human) (UniProt P15056)
# CAMK1G (human) = CAMK1G (human) (UniProt Q96NX5)
# Sequence of CAMK1G (human) (Q96NX5 whole entry, looked up): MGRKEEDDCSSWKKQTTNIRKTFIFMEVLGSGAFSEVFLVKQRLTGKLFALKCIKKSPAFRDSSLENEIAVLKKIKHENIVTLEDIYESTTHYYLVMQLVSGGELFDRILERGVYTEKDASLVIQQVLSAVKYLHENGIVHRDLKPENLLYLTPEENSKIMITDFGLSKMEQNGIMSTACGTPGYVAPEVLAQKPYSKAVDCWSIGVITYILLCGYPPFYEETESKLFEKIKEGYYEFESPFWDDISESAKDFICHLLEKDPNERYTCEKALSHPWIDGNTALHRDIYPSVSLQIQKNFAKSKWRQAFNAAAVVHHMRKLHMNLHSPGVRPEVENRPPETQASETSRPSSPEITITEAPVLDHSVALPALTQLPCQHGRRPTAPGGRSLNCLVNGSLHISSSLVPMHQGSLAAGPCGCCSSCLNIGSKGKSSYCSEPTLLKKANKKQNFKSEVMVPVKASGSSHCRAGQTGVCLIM
# PAK6 (human) = PAK6 (human) (UniProt Q9NQU5)
# CDK4 CCND3 (human) = CDK4 CCND3 (human) (UniProt P30281+P11802)
# Sequence of CDK4 CCND3 (human) (P11802 whole entry, looked up): as the sequence (P11802 whole entry, looked up) above
# Sequence of CDK4 CCND3 (human) (P30281 whole entry, looked up): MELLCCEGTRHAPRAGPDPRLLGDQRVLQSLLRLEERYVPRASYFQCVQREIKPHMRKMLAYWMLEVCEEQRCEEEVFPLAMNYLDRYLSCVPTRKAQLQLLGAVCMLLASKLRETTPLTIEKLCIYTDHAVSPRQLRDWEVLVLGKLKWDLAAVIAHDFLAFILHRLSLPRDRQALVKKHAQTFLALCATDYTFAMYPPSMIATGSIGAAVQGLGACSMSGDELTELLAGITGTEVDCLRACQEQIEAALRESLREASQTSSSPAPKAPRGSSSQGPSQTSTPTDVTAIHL
# AURKC (human) = AURKC (human) (UniProt Q9UQB9)
# Sequence of AURKC (human) (Q9UQB9 whole entry, looked up): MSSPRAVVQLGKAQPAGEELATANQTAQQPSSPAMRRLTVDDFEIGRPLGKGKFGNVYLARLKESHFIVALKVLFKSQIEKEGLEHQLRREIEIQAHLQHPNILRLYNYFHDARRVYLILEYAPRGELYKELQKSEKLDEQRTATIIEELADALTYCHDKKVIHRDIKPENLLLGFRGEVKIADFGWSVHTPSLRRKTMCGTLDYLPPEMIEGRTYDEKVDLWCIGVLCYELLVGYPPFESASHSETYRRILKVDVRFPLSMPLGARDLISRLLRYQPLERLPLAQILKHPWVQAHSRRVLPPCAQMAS
# MINK1 (human) = MINK1 (human) (UniProt Q8N4C8)
# Sequence of MINK1 (human) (Q8N4C8 whole entry, looked up): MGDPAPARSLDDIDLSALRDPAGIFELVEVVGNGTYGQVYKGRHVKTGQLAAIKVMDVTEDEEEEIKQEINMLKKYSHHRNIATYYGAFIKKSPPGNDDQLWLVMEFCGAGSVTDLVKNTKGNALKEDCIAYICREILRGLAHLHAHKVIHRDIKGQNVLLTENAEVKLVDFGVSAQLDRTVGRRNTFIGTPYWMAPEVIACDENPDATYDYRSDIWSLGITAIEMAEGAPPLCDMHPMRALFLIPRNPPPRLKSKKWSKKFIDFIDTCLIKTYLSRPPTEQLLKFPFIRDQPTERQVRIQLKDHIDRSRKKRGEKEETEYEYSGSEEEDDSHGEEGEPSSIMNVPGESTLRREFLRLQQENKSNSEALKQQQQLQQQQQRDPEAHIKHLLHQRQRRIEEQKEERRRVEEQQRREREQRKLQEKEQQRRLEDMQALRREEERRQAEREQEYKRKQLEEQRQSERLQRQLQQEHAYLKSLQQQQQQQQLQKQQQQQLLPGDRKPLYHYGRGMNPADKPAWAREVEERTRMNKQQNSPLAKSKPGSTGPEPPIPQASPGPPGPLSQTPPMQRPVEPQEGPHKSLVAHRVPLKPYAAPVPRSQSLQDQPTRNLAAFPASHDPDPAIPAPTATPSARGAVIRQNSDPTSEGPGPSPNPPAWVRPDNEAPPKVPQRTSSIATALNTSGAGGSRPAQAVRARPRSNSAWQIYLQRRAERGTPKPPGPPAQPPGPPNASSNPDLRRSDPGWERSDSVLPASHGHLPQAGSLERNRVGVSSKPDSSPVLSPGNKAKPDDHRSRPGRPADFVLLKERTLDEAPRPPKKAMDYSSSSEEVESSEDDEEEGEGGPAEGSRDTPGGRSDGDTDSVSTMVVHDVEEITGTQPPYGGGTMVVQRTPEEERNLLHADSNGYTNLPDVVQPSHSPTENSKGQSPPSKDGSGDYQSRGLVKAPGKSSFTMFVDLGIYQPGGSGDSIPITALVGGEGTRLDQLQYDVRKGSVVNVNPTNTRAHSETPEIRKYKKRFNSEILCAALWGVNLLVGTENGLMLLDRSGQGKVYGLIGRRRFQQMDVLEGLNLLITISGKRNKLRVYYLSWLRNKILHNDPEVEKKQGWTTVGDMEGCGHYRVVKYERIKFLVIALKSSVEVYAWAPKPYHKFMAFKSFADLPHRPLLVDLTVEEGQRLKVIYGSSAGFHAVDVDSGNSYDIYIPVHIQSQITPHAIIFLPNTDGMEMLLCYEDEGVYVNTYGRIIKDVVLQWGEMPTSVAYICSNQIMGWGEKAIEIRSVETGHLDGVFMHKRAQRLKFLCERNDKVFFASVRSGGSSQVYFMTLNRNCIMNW
# FYN (human) = FYN (human) (UniProt P06241)
# MST1R (human) = MST1R (human) (UniProt Q04912)
# MARK1 (human) = MARK1 (human) (UniProt Q9P0L2)
# DSTYK (human) = DSTYK (human) (UniProt Q6XUX3)
# STK4 (human) = STK4 (human) (UniProt Q13043)
# LCK (human) = LCK (human) (UniProt P06239)
# EGFR (human) = EGFR (human) (UniProt P00533)
# PRKACG (human) = PRKACG (human) (UniProt P22612)
smiles,measurement,setting,value
O=c1cc(N2CCOCC2)oc2c(-c3ccccc3)cccc12,residual activity,PRKCB1 (human),96%
same,residual activity,MLTK (human),94.2%
same,residual activity,PHKG2 (human),97.2%
same,residual activity,CDK4 CCND1 (human),111%
same,residual activity,MAP2K1 (human),88.8%
same,residual activity,MAP4K5 (human),92.2%
same,residual activity,MYO3B (human),104%
same,residual activity,PRKCA (human),97.5%
same,residual activity,STK11 (human),101%
same,residual activity,EPHB3 (human),94.6%
same,residual activity,STK38 (human),103%
same,residual activity,IRAK4 (human),96%
same,residual activity,MAP3K8 (human),98.2%
same,residual activity,EPHA6 (human),87%
same,residual activity,ULK3 (human),103%
same,residual activity,LYN (human),94.5% and 99.4%
same,residual activity,CDK2 CCNA2 (human),106%
same,residual activity,IKBKE (human),100%
same,residual activity,CSNK2A1 (human),64.8%
same,residual activity,EPHB2 (human),99.8%
same,residual activity,CSNK1E (human),103%
same,residual activity,HCK (human),98.3%
same,residual activity,NEK3 (human),102%
same,residual activity,JAK3 JH1 JH2 (human),103%
same,residual activity,AURKA (human),99%
same,residual activity,MAP4K4 (human),93.5%
same,residual activity,CAMKK2 (human),83.3%
same,residual activity,TLK2 (human),83.2%
same,residual activity,BRAF (human),95.9%
same,residual activity,CAMK1G (human),93.8%
same,residual activity,PAK6 (human),115%
same,residual activity,CDK4 CCND3 (human),96.2%
same,residual activity,AURKC (human),97%
same,residual activity,MINK1 (human),94.6%
same,residual activity,FYN (human),100%
same,residual activity,MST1R (human),109%
same,residual activity,MARK1 (human),100%
same,residual activity,DSTYK (human),113%
same,residual activity,STK4 (human),87.8%
Nc1ncnc2c1cnn2-c1ccccc1,residual activity,PRKCB1 (human),95.2%
same,residual activity,MLTK (human),92.5%
same,residual activity,PHKG2 (human),94.1%
same,residual activity,CDK4 CCND1 (human),103%
same,residual activity,MAP2K1 (human),93.9%
same,residual activity,MAP4K5 (human),87.2%
same,residual activity,MYO3B (human),93.4%
same,residual activity,PRKCA (human),103%
same,residual activity,STK11 (human),93.9%
same,residual activity,EPHB3 (human),93.5%
same,residual activity,STK38 (human),98.6%
same,residual activity,IRAK4 (human),89.4%
same,residual activity,MAP3K8 (human),98.6%
same,residual activity,LCK (human),95.5%
same,residual activity,EPHA6 (human),83.2%
same,residual activity,ULK3 (human),98.9%
same,residual activity,LYN (human),102% and 99.7%
same,residual activity,CDK2 CCNA2 (human),108%
same,residual activity,IKBKE (human),100%
same,residual activity,CSNK2A1 (human),94.4%
same,residual activity,EPHB2 (human),96.2%
same,residual activity,CSNK1E (human),81.5%
same,residual activity,HCK (human),92.4%
same,residual activity,NEK3 (human),93.5%
same,residual activity,JAK3 JH1 JH2 (human),97.4%
same,residual activity,AURKA (human),91.9%
same,residual activity,MAP4K4 (human),94.4%
same,residual activity,CAMKK2 (human),86.8%
same,residual activity,TLK2 (human),110%
same,residual activity,BRAF (human),93.6%
same,residual activity,CAMK1G (human),102%
same,residual activity,PAK6 (human),100%
same,residual activity,CDK4 CCND3 (human),94%
same,residual activity,AURKC (human),98.2%
same,residual activity,MINK1 (human),88.9%
same,residual activity,FYN (human),97.8%
same,residual activity,MST1R (human),100%
same,residual activity,MARK1 (human),94.8%
same,residual activity,DSTYK (human),94.5%
same,residual activity,EGFR (human),73%
same,residual activity,STK4 (human),96.8%
COc1cc2c(N3CCN(C(=O)Nc4ccc(OC(C)C)cc4)CC3)ncnc2cc1OCCCN1CCCCC1,residual activity,PRKCB1 (human),98.4%
same,residual activity,MLTK (human),99.7%
same,residual activity,PHKG2 (human),98.9%
same,residual activity,CDK4 CCND1 (human),92.5%
same,residual activity,MAP2K1 (human),113%
same,residual activity,MAP4K5 (human),87.6%
same,residual activity,MYO3B (human),88.5%
same,residual activity,PRKCA (human),109%
same,residual activity,STK11 (human),104%
same,residual activity,EPHB3 (human),84.2%
same,residual activity,STK38 (human),99.1%
same,residual activity,IRAK4 (human),96%
same,residual activity,MAP3K8 (human),93.2%
same,residual activity,LCK (human),87.1%
same,residual activity,EPHA6 (human),103%
same,residual activity,ULK3 (human),101%
same,residual activity,LYN (human),103% and 95.6%
same,residual activity,CDK2 CCNA2 (human),93.3%
same,residual activity,IKBKE (human),96.2%
same,residual activity,CSNK2A1 (human),102%
same,residual activity,EPHB2 (human),97.6%
same,residual activity,CSNK1E (human),99.1%
same,residual activity,HCK (human),93.2%
same,residual activity,NEK3 (human),103%
same,residual activity,JAK3 JH1 JH2 (human),99.8%
same,residual activity,AURKA (human),108%
same,residual activity,MAP4K4 (human),96.6%
same,residual activity,CAMKK2 (human),101%
same,residual activity,TLK2 (human),96.2%
same,residual activity,PRKACG (human),108%
same,residual activity,CAMK1G (human),94.6%
same,residual activity,PAK6 (human),101%
same,residual activity,CDK4 CCND3 (human),104%
same,residual activity,AURKC (human),97%
same,residual activity,MINK1 (human),99%
same,residual activity,FYN (human),94.8%
same,residual activity,MST1R (human),99.2%
same,residual activity,MARK1 (human),89.9%
same,residual activity,DSTYK (human),92.7%
same,residual activity,STK4 (human),96.2%
N#Cc1c(NC(=O)c2cccc3ccccc23)sc2c1CCCC2,residual activity,PRKCB1 (human),90.9%
same,residual activity,MLTK (human),93.2%
same,residual activity,PHKG2 (human),101%
same,residual activity,CDK4 CCND1 (human),98.7%
same,residual activity,MAP2K1 (human),98.4%
same,residual activity,MAP4K5 (human),93.8%
same,residual activity,MYO3B (human),107%
same,residual activity,PRKCA (human),99.5%
same,residual activity,STK11 (human),96.1%
same,residual activity,EPHB3 (human),95.9%
same,residual activity,STK38 (human),97.7%
same,residual activity,IRAK4 (human),92.9%
same,residual activity,MAP3K8 (human),99.8%
same,residual activity,LCK (human),102%
same,residual activity,EPHA6 (human),93.4%
same,residual activity,LYN (human),104% and 87%
same,residual activity,CDK2 CCNA2 (human),100%
same,residual activity,IKBKE (human),94.3%
same,residual activity,CSNK2A1 (human),101%
same,residual activity,EPHB2 (human),97.5%
same,residual activity,CSNK1E (human),102%
same,residual activity,HCK (human),96.5%
same,residual activity,NEK3 (human),93.2%
same,residual activity,JAK3 JH1 JH2 (human),101%
same,residual activity,AURKA (human),101%
same,residual activity,MAP4K4 (human),88.9%
same,residual activity,CAMKK2 (human),80.4%
same,residual activity,TLK2 (human),98.9%
same,residual activity,PRKACG (human),111%
same,residual activity,BRAF (human),95.2%
same,residual activity,CAMK1G (human),97.7%
same,residual activity,PAK6 (human),101%
same,residual activity,CDK4 CCND3 (human),97.1%
same,residual activity,AURKC (human),95%
same,residual activity,MINK1 (human),95.2%
same,residual activity,FYN (human),102%
same,residual activity,MST1R (human),92.5%
same,residual activity,MARK1 (human),100%
same,residual activity,DSTYK (human),100%
same,residual activity,STK4 (human),93.1%
CN[C@@H]1C[C@H]2O[C@@](C)([C@@H]1OC)n1c3ccccc3c3c4c(c5c6ccccc6n2c5c31)C(=O)NC4,residual activity,PHKG2 (human),3.42%
same,residual activity,MAP2K1 (human),3.83%
same,residual activity,STK38 (human),10%
same,residual activity,ULK3 (human),1.82%
same,residual activity,LYN (human),1.18% and 5.72%
same,residual activity,HCK (human),3.26%
same,residual activity,STK4 (human),-0.197%
